The text below walks through data of patent publication US20260085062A1, “NOVEL COMPOUNDS AS CK2 INHIBITORS” (Cambridge Enterprise Limited, priority 2022, published 2026).

The structures appear in SMILES notation. Some results are limits rather than exact numbers.

In test [1] the target is T1, CK2α (Homo sapiens, UniProt P68400).
T1 construct: CK2α (residues 2-329) was produced in Escherichia coli BL21 (DE3) for kinase activity screening; His6 (N, cleaved yes); made in house; host or cells: Escherichia coli BL21 (DE3)
T1 sequence (P68400 2-329): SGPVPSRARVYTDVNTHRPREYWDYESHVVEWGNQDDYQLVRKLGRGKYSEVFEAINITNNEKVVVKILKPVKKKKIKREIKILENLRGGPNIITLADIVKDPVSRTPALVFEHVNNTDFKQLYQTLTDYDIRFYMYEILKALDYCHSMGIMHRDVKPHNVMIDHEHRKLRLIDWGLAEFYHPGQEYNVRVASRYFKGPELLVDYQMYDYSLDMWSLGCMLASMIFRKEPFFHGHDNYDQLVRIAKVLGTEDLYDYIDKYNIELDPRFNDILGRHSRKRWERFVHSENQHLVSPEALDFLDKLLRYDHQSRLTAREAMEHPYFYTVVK
In words: Biochemical assay for inhibitors of CK2α kinase activity (ADP-Glo). As to conditions: 0.2 nM CK2α, 50 μM peptide substrate, 15 μM ATP, read-out: Assay 1: CK2α Enzyme IC50.

Test [2] addresses T2, CLK2 (Homo sapiens, UniProt P49760).
T2 construct: purchased Carna Biosciences 04-127
In words: Biochemical assay for inhibitors of CLK2 kinase activity (ADP-Glo). The following applies: 20 nM CLK2, 50 μM peptide substrate, 100 μM ATP, read-out: Assay 2: CLK2 Enzyme IC50. On the technique in general: In ADP-Glo the light output rises with the ADP produced.

Test [3] addresses T3, intracellular CK2α (Homo sapiens, UniProt P19784).
T3 construct: host or cells: HCT116 (ATCC CCL-247)
The test is described as follows: Cell-based NanoBRET assay for inhibitor binding to intracellular CK2α. As to conditions: HCT116 cells transiently transfected with CSNK2A2-NanoLuc fusion vector; Tracer K-5; 2 h; read-out: Assay 3: NanoBRET ™ assay for binding to intracellular CK2α. The method in brief:
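Living cells expressing NanoLuc-CK2α fusion were given a fixed tracer concentration, and compounds competitively displaced the reversibly bound tracer. Donor (450 nm) and acceptor (610 or 630 nm) emissions were read; BRET ratio = (acceptor/donor)×1,000, giving apparent intracellular affinity.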
On the technique in general: In BRET a luciferase serves as donor, and the signal depends on an acceptor being close.

T2 sequence (P49760 whole entry): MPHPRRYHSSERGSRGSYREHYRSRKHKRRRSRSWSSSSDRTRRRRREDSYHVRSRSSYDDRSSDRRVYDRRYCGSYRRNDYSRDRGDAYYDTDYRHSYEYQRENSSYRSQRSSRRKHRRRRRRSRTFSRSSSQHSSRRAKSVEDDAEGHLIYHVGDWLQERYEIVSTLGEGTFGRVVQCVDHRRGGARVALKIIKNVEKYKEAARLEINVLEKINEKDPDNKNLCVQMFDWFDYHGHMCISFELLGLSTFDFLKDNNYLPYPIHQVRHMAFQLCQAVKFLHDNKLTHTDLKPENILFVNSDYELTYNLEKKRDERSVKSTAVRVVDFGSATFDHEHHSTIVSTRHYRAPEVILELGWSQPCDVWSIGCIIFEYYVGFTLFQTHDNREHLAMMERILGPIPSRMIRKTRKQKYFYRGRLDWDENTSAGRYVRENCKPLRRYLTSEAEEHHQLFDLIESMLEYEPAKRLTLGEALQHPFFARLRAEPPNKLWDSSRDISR
T3 sequence (P19784 whole entry): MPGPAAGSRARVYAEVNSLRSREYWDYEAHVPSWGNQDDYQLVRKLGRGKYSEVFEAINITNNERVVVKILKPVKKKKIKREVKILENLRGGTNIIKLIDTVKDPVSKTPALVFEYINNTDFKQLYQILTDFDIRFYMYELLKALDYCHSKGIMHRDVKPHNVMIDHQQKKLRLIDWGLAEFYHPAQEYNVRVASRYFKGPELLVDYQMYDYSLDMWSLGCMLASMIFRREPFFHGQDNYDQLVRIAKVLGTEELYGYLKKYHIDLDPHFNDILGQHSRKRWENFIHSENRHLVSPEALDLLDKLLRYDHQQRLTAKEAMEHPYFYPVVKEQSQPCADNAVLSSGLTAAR

For `c1cc(-c2cc(N3CC(OCCCCNCc4cc5cc(OC6CCC6)ccc5[nH]4)C3)c3cn[nH]c3c2)cnn1` [Example 109, N-((5-cyclobutoxy-1H-indol-2-yl)methyl)-4-((1-(6-(pyridazin-4-yl)-1H-indazol-4-yl)azetidin-3-yl)oxy)butan-1-amine], the IC50 in test [1] was 0.0425 µM; in test [2], 2.92 µM; in test [3] it was 2.81 µM.
On to `OCc1cc(F)cc(CNCCCCOC2CN(c3cc(-c4ccnnc4)cc4[nH]ncc34)C2)c1` [Example 110, (3-fluoro-5-(((4-((1-(6-(pyridazin-4-yl)-1H-indazol-4-yl)azetidin-3-yl)oxy)butyl)amino)methyl)phenyl)methanol], for which the IC50 in test [1] came out at 0.384 µM; in test [2] it was 2.72 µM; in test [3], 20.6 µM.
Consider `OCc1cc(Cl)cc(CNCCCCOC2CN(c3cc(-c4ccnnc4)cc4[nH]ncc34)C2)c1` [Example 111, (3-chloro-5-(((4-((1-(6-(pyridazin-4-yl)-1H-indazol-4-yl)azetidin-3-yl)oxy)butyl)amino)methyl)phenyl)methanol], for which the IC50 was 0.228 µM in test [1], 2.3 µM in test [2] and 14.2 µM in test [3].
Taken in the same sequence, the figures for `OCc1cc(CNCCCCOC2CN(c3cc(-c4ccnnc4)cc4[nH]ncc34)C2)cc(C(F)(F)F)c1` [Example 112, (3-(((4-((1-(6-(pyridazin-4-yl)-1H-indazol-4-yl)azetidin-3-yl)oxy)butyl)amino)methyl)-5-(trifluoromethyl)phenyl)methanol] were 0.205 µM, 0.633 µM and 14 µM.
Take `N#CCc1cc(F)cc(CNCCCCOC2CN(c3cc(-c4ccnnc4)cc4[nH]ncc34)C2)c1` [Example 113, 2-(3-fluoro-5-(((4-((1-(6-(pyridazin-4-yl)-1H-indazol-4-yl)azetidin-3-yl)oxy)butyl)amino)methyl)phenyl)acetonitrile]: the results for the IC50 in test [1], in test [2] and in test [3] were 0.0675 µM, 2.71 µM and 8.09 µM, respectively.
Take `N#CCc1cc(CNCCCCOC2CN(c3cc(-c4ccnnc4)cc4[nH]ncc34)C2)cc(C(F)(F)F)c1` [Example 114, 2-(3-(((4-((1-(6-(pyridazin-4-yl)-1H-indazol-4-yl)azetidin-3-yl)oxy)butyl)amino)methyl)-5-(trifluoromethyl)phenyl)acetonitrile]: the IC50 in test [1] was 0.0505 µM; in test [2], 2.15 µM; in test [3], 2.52 µM.
Turning to `Cc1cc(CC#N)cc(CNCCCCOC2CN(c3cc(-c4ccnnc4)cc4[nH]ncc34)C2)c1` [Example 115, 2-(3-methyl-5-(((4-((1-(6-(pyridazin-4-yl)-1H-indazol-4-yl)azetidin-3-yl)oxy)butyl)amino)methyl)phenyl)acetonitrile], the IC50 is 0.115 µM in test [1], 6.46 µM in test [2] and 9.91 µM in test [3].
As to `FC(F)(F)c1ccc2[nH]c(CNCCCCOCCOc3cc(-n4cnnc4)cc4[nH]nnc34)cc2c1` [Example 116, 4-(2-((6-(4H-1,2,4-triazol-4-yl)-1H-benzo[d][1,2,3]triazol-4-yl)oxy)ethoxy)-N-((5-(trifluoromethyl)-1H-indol-2-yl)methyl)butan-1-amine], the IC50 is 0.247 µM in test [1], above 50 µM in test [2] and above 50 µM in test [3].
Take `FC(F)(F)c1ccc2[nH]c(CNCCCCOCCOc3cc(-n4cnnc4)cc4[nH]ncc34)cc2c1` [Example 117, 4-(2-((6-(4H-1,2,4-triazol-4-yl)-1H-indazol-4-yl)oxy)ethoxy)-N-((5-(trifluoromethyl)-1H-indol-2-yl)methyl)butan-1-amine]: the IC50 in test [1] amounted to 0.003 µM; in test [2], 1.27 µM; in test [3], 0.214 µM.
Taken in the same sequence, the figures for `c1cc2[nH]c(CNCCCCOCCOc3cc(-n4cnnc4)cc4[nH]ncc34)cc2cc1OC1CCC1` [Example 118, 4-(2-((6-(4H-1,2,4-triazol-4-yl)-1H-indazol-4-yl)oxy)ethoxy)-N-((5-cyclobutoxy-1H-indol-2-yl)methyl)butan-1-amine] were 0.00086 µM, 1.1 µM and 0.204 µM.
